The record followed here is the supplement of paper PMC10307832.

The first experiment concerns NCI-H3122. As to the kind of experiment: relative viability (nuclei count vs DMSO), 5 days (fraction); higher = more cells survive. Particulars: first compound 20 µM. The method in brief: (§1)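 Dosing by pin tool came one day after lung cancer cell lines were seeded in 1536-well plates, using either one drug or a fixed anchor-drug dose plus five library-drug doses (not always all listed) in √10 steps. After 5 days, nuclei were counted on 4× images. Relative viability is treated-well nuclei count divided by vehicle-well nuclei count, and values are medians of duplicate plates.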
On to `COCC1(CO)C(=O)C2CCN1CC2` (stereo not drawn) [PRIMA-1MET] + CC(=O)Nc1cccc(-n2c(=O)n(C3CC3)c(=O)c3c(Nc4ccc(I)cc4F)n(C)c(=O)c(C)c32)c1 [Trametinib] (partner 0.02 µM), for which the relative viability stood at 0.191.

Consider `COCC1(CO)C(=O)C2CCN1CC2` (stereo not drawn) [PRIMA-1MET] + Nc1ncn([C@H]2C[C@H](O)[C@@H](CO)O2)c(=O)n1 [Decitabine] (partner 2 µM), for which the relative viability came out at 0.425.

On to `COCC1(CO)C(=O)C2CCN1CC2` (stereo not drawn) [PRIMA-1MET] + O=C(c1cc(Cc2n[nH]c(=O)c3ccccc23)ccc1F)N1CCN(C(=O)C2CC2)CC1 [Olaparib] (partner 8 µM), for which the relative viability is 0.621.

The next experiment deals with NCI-H2023. Described as above. To be noted: first compound 0.2 µM. A digest of the protocol: as §1
`COCC1(CO)C(=O)C2CCN1CC2` (stereo not drawn) [PRIMA-1MET] + N=C(N)NC(=N)NCCc1ccccc1 [Phenformin] (partner 250 µM) displayed a relative viability of 0.453.

The compound `COCC1(CO)C(=O)C2CCN1CC2` (stereo not drawn) [PRIMA-1MET] + Nc1nc2[nH]cc(CCc3ccc(C(=O)N[C@@H](CCC(=O)O)C(=O)O)cc3)c2c(=O)[nH]1 [Pemetrexed] (partner 0.2 µM) registered a relative viability of 0.224.

`COCC1(CO)C(=O)C2CCN1CC2` (stereo not drawn) [PRIMA-1MET] + CC(=O)Nc1cccc(-n2c(=O)n(C3CC3)c(=O)c3c(Nc4ccc(I)cc4F)n(C)c(=O)c(C)c32)c1 [Trametinib] (partner 0.02 µM) displayed a relative viability of 0.681.

Turning to `COCC1(CO)C(=O)C2CCN1CC2` (stereo not drawn) [PRIMA-1MET] + Nc1ncn([C@H]2C[C@H](O)[C@@H](CO)O2)c(=O)n1 [Decitabine] (partner 2 µM), the relative viability was found to be 0.211.

`COCC1(CO)C(=O)C2CCN1CC2` (stereo not drawn) [PRIMA-1MET] + O=C(c1cc(Cc2n[nH]c(=O)c3ccccc23)ccc1F)N1CCN(C(=O)C2CC2)CC1 [Olaparib] (partner 8 µM) showed a relative viability of 0.576.

The same experiment, now with this note: first compound 0.6325 µM.
As for `COCC1(CO)C(=O)C2CCN1CC2` (stereo not drawn) [PRIMA-1MET] + N=C(N)NC(=N)NCCc1ccccc1 [Phenformin] (partner 250 µM), the relative viability came to 0.447.

Turning to `COCC1(CO)C(=O)C2CCN1CC2` (stereo not drawn) [PRIMA-1MET] + Nc1nc2[nH]cc(CCc3ccc(C(=O)N[C@@H](CCC(=O)O)C(=O)O)cc3)c2c(=O)[nH]1 [Pemetrexed] (partner 0.2 µM), the relative viability was found to be 0.23.

Compound `COCC1(CO)C(=O)C2CCN1CC2` (stereo not drawn) [PRIMA-1MET] + CC(=O)Nc1cccc(-n2c(=O)n(C3CC3)c(=O)c3c(Nc4ccc(I)cc4F)n(C)c(=O)c(C)c32)c1 [Trametinib] (partner 0.02 µM) gave a relative viability of 0.556.

Consider `COCC1(CO)C(=O)C2CCN1CC2` (stereo not drawn) [PRIMA-1MET] + Nc1ncn([C@H]2C[C@H](O)[C@@H](CO)O2)c(=O)n1 [Decitabine] (partner 2 µM), for which the relative viability came to 0.128.

`COCC1(CO)C(=O)C2CCN1CC2` (stereo not drawn) [PRIMA-1MET] + O=C(c1cc(Cc2n[nH]c(=O)c3ccccc23)ccc1F)N1CCN(C(=O)C2CC2)CC1 [Olaparib] (partner 8 µM): the relative viability was determined as 0.478.

Still in this experiment, the particulars now being: first compound 2 µM.
The compound `COCC1(CO)C(=O)C2CCN1CC2` (stereo not drawn) [PRIMA-1MET] + N=C(N)NC(=N)NCCc1ccccc1 [Phenformin] (partner 250 µM) came in with a relative viability of 0.398.

As to `COCC1(CO)C(=O)C2CCN1CC2` (stereo not drawn) [PRIMA-1MET] + Nc1nc2[nH]cc(CCc3ccc(C(=O)N[C@@H](CCC(=O)O)C(=O)O)cc3)c2c(=O)[nH]1 [Pemetrexed] (partner 0.2 µM), the relative viability turned out to be 0.28.

Compound `COCC1(CO)C(=O)C2CCN1CC2` (stereo not drawn) [PRIMA-1MET] + CC(=O)Nc1cccc(-n2c(=O)n(C3CC3)c(=O)c3c(Nc4ccc(I)cc4F)n(C)c(=O)c(C)c32)c1 [Trametinib] (partner 0.02 µM) registered a relative viability of 0.603.

Consider `COCC1(CO)C(=O)C2CCN1CC2` (stereo not drawn) [PRIMA-1MET] + Nc1ncn([C@H]2C[C@H](O)[C@@H](CO)O2)c(=O)n1 [Decitabine] (partner 2 µM), for which the relative viability turned out to be 0.235.

On to `COCC1(CO)C(=O)C2CCN1CC2` (stereo not drawn) [PRIMA-1MET] + O=C(c1cc(Cc2n[nH]c(=O)c3ccccc23)ccc1F)N1CCN(C(=O)C2CC2)CC1 [Olaparib] (partner 8 µM), for which the relative viability was 0.489.

The same experiment, now with this note: first compound 6.325 µM.
Consider `COCC1(CO)C(=O)C2CCN1CC2` (stereo not drawn) [PRIMA-1MET] + N=C(N)NC(=N)NCCc1ccccc1 [Phenformin] (partner 250 µM), for which the relative viability turned out to be 0.405.

On to `COCC1(CO)C(=O)C2CCN1CC2` (stereo not drawn) [PRIMA-1MET] + Nc1nc2[nH]cc(CCc3ccc(C(=O)N[C@@H](CCC(=O)O)C(=O)O)cc3)c2c(=O)[nH]1 [Pemetrexed] (partner 0.2 µM), for which the relative viability turned out to be 0.237.

`COCC1(CO)C(=O)C2CCN1CC2` (stereo not drawn) [PRIMA-1MET] + CC(=O)Nc1cccc(-n2c(=O)n(C3CC3)c(=O)c3c(Nc4ccc(I)cc4F)n(C)c(=O)c(C)c32)c1 [Trametinib] (partner 0.02 µM) came in with a relative viability of 0.711.

As to `COCC1(CO)C(=O)C2CCN1CC2` (stereo not drawn) [PRIMA-1MET] + Nc1ncn([C@H]2C[C@H](O)[C@@H](CO)O2)c(=O)n1 [Decitabine] (partner 2 µM), the relative viability stood at 0.216.

For `COCC1(CO)C(=O)C2CCN1CC2` (stereo not drawn) [PRIMA-1MET] + O=C(c1cc(Cc2n[nH]c(=O)c3ccccc23)ccc1F)N1CCN(C(=O)C2CC2)CC1 [Olaparib] (partner 8 µM), the relative viability was determined as 0.442.

The same experiment, now with this note: first compound 20 µM.
`COCC1(CO)C(=O)C2CCN1CC2` (stereo not drawn) [PRIMA-1MET] + N=C(N)NC(=N)NCCc1ccccc1 [Phenformin] (partner 250 µM) displayed a relative viability of 0.284.

As for `COCC1(CO)C(=O)C2CCN1CC2` (stereo not drawn) [PRIMA-1MET] + Nc1nc2[nH]cc(CCc3ccc(C(=O)N[C@@H](CCC(=O)O)C(=O)O)cc3)c2c(=O)[nH]1 [Pemetrexed] (partner 0.2 µM), the relative viability was determined as 0.147.

`COCC1(CO)C(=O)C2CCN1CC2` (stereo not drawn) [PRIMA-1MET] + CC(=O)Nc1cccc(-n2c(=O)n(C3CC3)c(=O)c3c(Nc4ccc(I)cc4F)n(C)c(=O)c(C)c32)c1 [Trametinib] (partner 0.02 µM) yielded a relative viability of 0.546.

Compound `COCC1(CO)C(=O)C2CCN1CC2` (stereo not drawn) [PRIMA-1MET] + Nc1ncn([C@H]2C[C@H](O)[C@@H](CO)O2)c(=O)n1 [Decitabine] (partner 2 µM) returned a relative viability of 0.209.

Compound `COCC1(CO)C(=O)C2CCN1CC2` (stereo not drawn) [PRIMA-1MET] + O=C(c1cc(Cc2n[nH]c(=O)c3ccccc23)ccc1F)N1CCN(C(=O)C2CC2)CC1 [Olaparib] (partner 8 µM) gave a relative viability of 0.29.

Another experiment has as its system HCC-78. Described as above. To be noted: first compound 0.2 µM. The method in brief: as §1
Compound `COCC1(CO)C(=O)C2CCN1CC2` (stereo not drawn) [PRIMA-1MET] + N=C(N)NC(=N)NCCc1ccccc1 [Phenformin] (partner 250 µM) gave a relative viability of 0.7.

As for `COCC1(CO)C(=O)C2CCN1CC2` (stereo not drawn) [PRIMA-1MET] + Nc1nc2[nH]cc(CCc3ccc(C(=O)N[C@@H](CCC(=O)O)C(=O)O)cc3)c2c(=O)[nH]1 [Pemetrexed] (partner 0.2 µM), the relative viability was found to be 0.916.

Take `COCC1(CO)C(=O)C2CCN1CC2` (stereo not drawn) [PRIMA-1MET] + CC(=O)Nc1cccc(-n2c(=O)n(C3CC3)c(=O)c3c(Nc4ccc(I)cc4F)n(C)c(=O)c(C)c32)c1 [Trametinib] (partner 0.02 µM): the relative viability was 0.676.

Take `COCC1(CO)C(=O)C2CCN1CC2` (stereo not drawn) [PRIMA-1MET] + Nc1ncn([C@H]2C[C@H](O)[C@@H](CO)O2)c(=O)n1 [Decitabine] (partner 2 µM): the relative viability is 0.643.

With `COCC1(CO)C(=O)C2CCN1CC2` (stereo not drawn) [PRIMA-1MET] + O=C(c1cc(Cc2n[nH]c(=O)c3ccccc23)ccc1F)N1CCN(C(=O)C2CC2)CC1 [Olaparib] (partner 8 µM), the relative viability was determined as 1.
